For data set [1], the system named is edema in hindpads of rats. Nature of the data set: rat pad edema test (HILLEBRECHT, Carragenine). Format: in vivo. The note with it: 3 hours. Here is the method:
The antiphlogistic properties are determined in the rat pad edema test according to HILLEBRECHT (J. HILLEBRECHT, Arzneim. Forsch. 1954, vol. 4, p. 607). In this test, the formation of an edema is caused in one of the hindpads of rats weighing each 200 to 250 grams, by subplantar injection of Carragenine (0.5% in 0.9% NaCl solution) in an amount of 0.1 ml. solution per each pad. After administration of the test compound in an amount which in general should not be larger than a volume of 10 ml. per kg. body weight, the volume of the pad is determined in an overflow. 3 hours after administration of the test compound the final volume is determined. The test is carried out with 10 test animals and 10 control animals of one sex per each dose and is repeated with the same number of animals of the other sex. For evaluation purposes the percent inhibition of edema formation is determined over the control group.

Data set [2] deals with granuloma in the connective tissue. Nature of the data set: Granuloma test (cotton-pellet-test) according to R. MEIER. The data set is classed as in vivo, rat. The text has this:
In this test, cotton pellets impregnated with crotone oil are implanted subcutaneously into the test animals (rats) which impregnated cotton pellets cause the formation of granuloma in the connective tissue. After killing of the test animals, the granuloma are separated and recovered and are weighed as wet or dry tissue. The anti-proliferatic activity of an antiphlogistic agent is expressed in a lower granuloma weight in comparison to untreated control animals.

Data set [3] has as its system arthritis caused by Freud adjuvans (pad volume). The data set can be described thus: Adjunct-Arthritis (C. M. PEARSON). The data set is classed as in vivo, rat (wistar). The procedure:
There are used 10 wistar rats each weighing 120 to 150 g. per each dose. The same number of animals is used as control group. An arthritis is caused by subplantar injection of 0.5 ml. of Freud adjuvans. The test duration is 17 days. At the beginning of the test the volume of the pads of all for legs is determined as starting value. The volume is further determined on the 8th, 14th and 17th day of the test. In the evaluation, the difference between the pad volume at the beginning and at the end of the test is determined both in the test group as well as in the control group. The test result, i.e. the inhibition of the growth of the pad volume is expressed in percent.

The test system of data set [4] is ulcus formation of the stomach. The data set can be described thus: Ulcus test. The settings on record: 3.5 hours. Format: in vivo, rat (wistar). Here is the method: The determination of ulcus formation is carried out according to W. J. R. WHITTLE, Brit.J.Pharmacology 1975, vol. 55, pgs. 242 to 243; L. MARIANI, Europ. J. Toxicol. Eviron, 1975, vol. 8, pgs. 335 to 339; R. MENGUY and L. DESBAILLETS, Proc.Soc.Exp.Bio., vol. 125, p. 1108. In this test, 10 female and 10 male wistar rats are used each weighing 120 to 150 g. and which had been fed only with […] for 2 days and were kept thereafter without feeding for 16 hours. The formation of a bleeding ulcus of the stomach was provocated by oral application of the compound to be tested. 3.5 hours after administration the test animals were killed, the stomach was separated, opened along the large curvature and fixed to a polystyrol plate. There is determined the number and size of average ulcus formation both in the test group and in the control group.

Data set [5] has as its system arthritis caused by Freud adjuvans (pad volume). Nature of the data set: Adjunct-Arthritis (C. M. PEARSON). Format: in vivo, rat (wistar). The note with it: 7th day p.i.
The mark [6] stands for this setting: 0.1 mg./kg. p.o., 14th day p.i.
Where [7] appears, read: 0.1 mg./kg. p.o., 17th day p.i.

SMILES strings stand for the structures.

The values that follow come from patent US4352799A, “2-Phenyl-1,2-benzisoselenazol-3(2H)-one containing pharmaceutical preparations and process for the treatment of rheumatic diseases” (A. Nattermann & Cie GmbH, priority 1980, dated 1982).

The term mortality denotes the percentage killed. Read a high mortality as a strong lethal effect. What is called LD50 is the dose at which mortality reaches 50%. Low readings indicate greater toxicity, high ones lower toxicity.

For the molecule `O=c1c2ccccc2[se]n1-c1ccccc1` [2-Phenyl-1.2-benzisoselenazol-3(2H)-one, 2-phenyl-1.2-benzisoselenazol-3(2H)-one], the “Edema inhibition, inhibitory effect” value in data set [1] (0.1 mg./kg. i.m.) is -23%; in data set [1] (0.1 mg./kg. p.o.), -1%; in data set [1] (1.0 mg./kg. i.m.) it was -62%; in data set [1] (1.0 mg./kg. p.o.) it was -57%; in data set [1] (10 mg./kg. i.m.) it was -35%; in data set [1] (10 mg./kg. p.o.), -40%. For the same molecule, the “Decrease of granuloma weight” value in data set [2] (0.1 mg./kg. p.o.) is recorded as -22%; in data set [2] (1 mg./kg. p.o.), -21%; in data set [2] (10 mg./kg. p.o.), -20%. Besides, the “inhibitory effect (growth of pad volume)” value in data set [3] (setting [6]) is -10%; in data set [3] (setting [7]), -13%; in data set [3] (1 mg./kg. p.o., 14th day p.i.), -36%; in data set [3] (1 mg./kg. p.o., 17th day p.i.), -33%; in data set [3] (10 mg./kg. p.o., 14th day p.i.) it was -22%; in data set [3] (10 mg./kg. p.o., 17th day p.i.), -24%. In addition, the “inhibitory effect (growth of pad volume)” value in data set [5] (0.1 mg./kg. p.o.) is reported as -22%; in data set [5] (1 mg./kg. p.o.) it was -46%; in data set [5] (10 mg./kg. p.o.), -30%. For the same molecule, in data set [3] (at higher doses, p.o.), the toxicity effects result is on record as “no toxicity effects occur”. For the same molecule, the “Ulcus formation, effectiveness” value in data set [4] (1 mg./kg. p.o.), in data set [4] (10 mg./kg. p.o.) and in data set [4] (100 mg./kg. p.o.) was 0 each time. For the same molecule, the mortality worked out at 0% in “Toxicity in rats, p.o.” (rat, in vivo, po, 4600 mg/kg) and 0% in the data set “Toxicity in mice, p.o.” (mouse, in vivo, po, 2150 mg/kg). For the same molecule, the “dose at lethality 0%” value in “Toxicity in rats, p.o.” (rats, p.o.) is reported as 4,600 mg./kg; in “Toxicity in mice, p.o.” (mice, p.o.) it was > 2,150 mg./Kg.
Regarding `COc1ccc2c(c1)c(CC(=O)O)c(C)n2C(=O)c1ccc(Cl)cc1` [Indometacin, reference compound], the “Edema inhibition, inhibitory effect” value is -9% in data set [1] (1.0 mg./kg. i.m.); -23% in data set [1] (3 mg./kg. i.m.); -26% in data set [1] (3.8 mg./kg. p.o.); -45% in data set [1] (5.6 mg./kg. p.o.); -57% in data set [1] (8.3 mg./kg. p.o.); -33% in data set [1] (10 mg./kg. i.m.). The “Decrease of granuloma weight” value is -21% in data set [2] (1 mg./kg. p.o.), -7% in data set [2] (3.2 mg./kg. p.o.) and -6% in data set [2] (5.6 mg./kg. p.o.). The “inhibitory effect (growth of pad volume)” value in data set [3] (setting [6]) is recorded as -25%; in data set [3] (setting [7]), -37%; in data set [3] (1 mg./kg. p.o., 14th day p.i.), -40%; in data set [3] (1 mg./kg. p.o., 17th day p.i.), -40%; in data set [5] (0.1 mg./kg. p.o.) it was -32%; in data set [5] (1 mg./kg. p.o.) it was -50%. The “lethality given in place of inhibitory effect” value in data set [3] (10 mg./kg. p.o., 14th day p.i.) was “lethal”; in data set [3] (10 mg./kg. p.o., 17th day p.i.) it was “lethal”; in data set [5] (10 mg./kg. p.o.), “lethal”. Further, the median lethal dose (LD50) in “Toxicity in rats, p.o.” (rat, in vivo, po) was 38 mg/kg; in the data set “Toxicity in mice, p.o.” (mouse, in vivo, po) it was 19 mg/kg. The mortality in the data set “Toxicity in rats, p.o.” (rat, in vivo, po, 38 mg/kg) stood at 50%; in the data set “Toxicity in mice, p.o.” (mouse, in vivo, po, 19 mg/kg), 50%.
